We go through two molecules from publication PMC4128046, “Effect of a toggle switch mutation in TM6 of the human adenosine A3 receptor on Gi protein-dependent signalling and Gi-independent receptor internalization” (British Journal of Pharmacology, 2014).

Each structure is given as a SMILES string. Substitutions are numbered along the chain they refer to.

Holding throughout (format): cell-based
For test [1], the target named is T1, A3-YFP (Homo sapiens, UniProt P0DMS8).
T1 construct: cDNA encoding the full length human A3 receptor; expressed in transfected cells
T1 sequence (P0DMS8 1-318): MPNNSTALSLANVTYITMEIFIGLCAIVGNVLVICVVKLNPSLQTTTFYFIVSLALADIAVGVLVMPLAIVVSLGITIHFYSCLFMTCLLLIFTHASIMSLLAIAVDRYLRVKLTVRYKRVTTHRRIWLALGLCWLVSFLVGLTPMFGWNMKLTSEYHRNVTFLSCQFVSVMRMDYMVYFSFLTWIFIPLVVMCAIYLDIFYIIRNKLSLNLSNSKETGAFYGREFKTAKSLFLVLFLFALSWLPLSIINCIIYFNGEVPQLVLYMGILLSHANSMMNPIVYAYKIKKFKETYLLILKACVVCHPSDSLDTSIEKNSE
The test is described as follows: CRE-SPAP gene transcription assay, A3-YFP. To be noted: A3-YFP cells; for agonist-mediated inhibition of SPAP production after PTx pre-incubation: PTx 100 ng·mL−1 overnight, 3 μM FSK; for Emax: read-out: Maximum response (% inhibition of 10 μM FSK), CRE-SPAP assay. How it is done:
One day before analysis, normal growth medium was removed from the cells and replaced with serum-free medium (DMEM/F12 containing 2 mM L-glutamine). Where applicable, PTx (100 ng·mL^−1) was added at this stage. On the day of the assay, the medium was removed and replaced with fresh serum-free medium containing the required concentration of the agonist, and cells were incubated for 1 h at 37°C/5% CO2. After 1 h, the required concentration of forskolin (FSK) was added, and cells were incubated for a further 5 h at 37°C/5% CO2. Following the 5 h incubation, all medium was removed from the cells, 40 μL of fresh serum-free medium was added to each well and cells incubated for a further 1 h at 37°C/5% CO2. The plates were then incubated at 65°C for 30 min, to destroy any endogenous alkaline phosphatases.
A basal and FSK control was included in each separate concentration-response CRE-SPAP gene transcription assay and cAMP accumulation assay to allow the responses in each cell line to be expressed as an inhibition of FSK-stimulated SPAP production.

For test [2], the target named is T2, A3 W243F-vYc/β-arrestin2-vYnL (Homo sapiens, UniProt P0DMS8, W243F).
T2 construct: cDNA encoding the full length human A3 receptor; expressed in transfected cells; host or cells: CHO-K1 stably expressing β-arrestin2-vYnL, stably co-transfected with A3 W243F-vYc
T2 sequence (P0DMS8 whole entry W243F): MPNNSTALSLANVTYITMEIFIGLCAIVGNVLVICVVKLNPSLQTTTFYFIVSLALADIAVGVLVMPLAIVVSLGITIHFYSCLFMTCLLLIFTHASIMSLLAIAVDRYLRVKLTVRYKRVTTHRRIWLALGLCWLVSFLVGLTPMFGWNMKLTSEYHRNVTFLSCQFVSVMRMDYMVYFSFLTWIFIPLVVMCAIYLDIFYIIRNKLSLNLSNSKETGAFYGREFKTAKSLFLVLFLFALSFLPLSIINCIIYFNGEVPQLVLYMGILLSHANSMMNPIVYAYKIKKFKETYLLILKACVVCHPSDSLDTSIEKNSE
T2 sequence (P32121 whole entry partner): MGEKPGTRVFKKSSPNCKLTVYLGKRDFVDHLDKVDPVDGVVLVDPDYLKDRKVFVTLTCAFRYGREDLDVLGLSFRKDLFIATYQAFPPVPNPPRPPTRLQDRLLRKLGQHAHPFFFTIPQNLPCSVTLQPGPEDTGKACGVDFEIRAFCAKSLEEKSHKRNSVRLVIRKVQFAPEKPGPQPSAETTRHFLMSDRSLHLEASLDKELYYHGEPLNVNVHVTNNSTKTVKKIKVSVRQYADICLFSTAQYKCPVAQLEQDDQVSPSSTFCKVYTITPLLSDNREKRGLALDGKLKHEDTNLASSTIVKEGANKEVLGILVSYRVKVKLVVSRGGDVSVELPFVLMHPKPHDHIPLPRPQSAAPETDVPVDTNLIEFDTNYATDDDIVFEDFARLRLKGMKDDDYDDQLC
The test is described as follows: BiFC of receptor with β-arrestin2 (automated imaging), A3 W243F-vYc. To be noted: A3 W243F-vYc/β-arrestin2-vYnL cells; for Maximal BiFC (%): percentage of 10 μM NECA in the cell line.

Test [3] concerns the target T1, A3-YFP. The test is described as follows: Confocal imaging of receptor internalization and membrane YFP fluorescence, A3-YFP. To be noted: A3-YFP cells, 10 μM agonist. How it is done:
(§1) Live-cell BiFC imaging was performed on A3-vYc/β-arrestin2-vYnL and A3 W243F-vYc/β-arrestin2-vYnL cells grown in Nunc Labtek 8-well plates, and images obtained using a Zeiss 710 confocal microscope (Carl Zeiss GmbH, Jena, Germany) fitted with a 63× plan-Apochromat NA1.4 Ph3 oil-immersion objective. Live-cell imaging analysis was performed on A3-YFP or A3 W243F-YFP CRE-SPAP cells and transiently expressed SNAP-A3 or SNAP-A3 W243F grown in Nunc Labtek 8-well plates, and images obtained using a Zeiss LSM5 Exciter confocal microscope (Carl Zeiss GmbH) fitted with a 63× plan-Apochromat NA1.4 DIC oil-immersion objective. For both YFP, BiFC and BG-AF488 label, a 488 nm argon laser was used to excite the fluorophore and emission was detected using a BP505-530 filter. Cells expressing the SNAP-tagged receptors were labelled with 1 μM SNAP-surface BG-AF488 (New England Biolabs) in DMEM/F12 medium for 30 min at 37°C/5% CO2. Before all imaging experiments, normal growth medium or medium containing BG-AF488 was removed and cells were washed twice in HEPES-buffered saline solution (HBSS; 25 mM HEPES, 10 mM glucose, 146 mM NaCl, 5 mM KCl, 1 mM MgSO4, 2 mM sodium pyruvate, 1.3 mM CaCl2) and fresh HBSS was added for analysis. […] Images of A3-YFP and A3 W243F-YFP cells were taken with same pinhole diameter, laser power, gain and offset to allow comparison of YFP fluorescence. To obtain fluorescence intensity values, a region of interest was drawn around the plasma membrane of 10 cells per image in Zeiss AIM 4.2 software (Carl Zeiss GmbH).

Another test addresses T3, A3 W243F-YFP (Homo sapiens, UniProt P0DMS8, W243F).
T3 construct: Full length A3 W243F-YFP was excised and subcloned into a native pcDNA3.1 vector; expressed in transfected cells
T3 sequence (P0DMS8 1-318 W243F): T1 sequence (P0DMS8 1-318) with W243F
The test is described as follows: Confocal imaging of receptor internalization and membrane YFP fluorescence, A3 W243F-YFP. To be noted: A3 W243F-YFP cells, 10 μM agonist. How it is done:
as §1

Turning to `CCCCC#Cc1nc(NC)c2ncn([C@@H]3O[C@H](CO)[C@@H](O)[C@H]3O)c2n1` [HEMADO, 2-(1-hexynyl)-N-methyladenosine], the EC50 was 3.02 nM at A3-YFP [1] (5 h with FSK, read-out: pEC50 (CRE-SPAP assay) (converted)) and 10.7 nM in test [2] (60 min, read-out: pEC50 (BiFC with β-arrestin2-vYnL) (converted)). Also, the “agonist-mediated inhibition of SPAP production after PTx pre-incubation” value on A3-YFP [1] was “no HEMADO-mediated response was observed”. The Emax on A3-YFP [1] came to 73.2 ± 7.7%. The “% maximal internalization vs. 10 μM NECA at 2 h (BiFC)” value in test [2] (10 μM, 2 h) turned out to be 58.0 ± 5.8%. The “Maximal BiFC (%)” value in test [2] (60 min) is listed as 54.5 ± 6.1%. Further, the “internalization of the receptor seen in confocal images” value (shortened to “internalization of the receptor seen”) is recorded as “substantial internalization” at A3-YFP [3] and “unable to stimulate internalization” on A3 W243F-YFP. The “reduction in membrane fluorescence” value on A3-YFP [3] is reported as 50%; on A3 W243F-YFP, “no significant change”.

For the molecule `CCNC(=O)[C@H]1O[C@@H](n2cnc3c(N)ncnc32)[C@H](O)[C@@H]1O` [NECA, 5-(N-ethylcarboxamido)adenosine], on A3-YFP [1], the “agonist-mediated inhibition of SPAP production after PTx pre-incubation” value is given as “abolished” and the Emax was 65.8 ± 8.2%. For the same molecule, the “SPAP production in the absence of FSK (Gs coupling)” value at A3-YFP [1] (no FSK, with or without PTx) is “no increase in SPAP production”. Besides, the “Maximal BiFC (%)” value in test [2] (60 min) amounted to 100%. At A3-YFP [3], the “internalization of the receptor seen” value is “rapid internalization” and the “reduction in membrane fluorescence” value was found to be 50%. For the same molecule, the “internalization of the receptor seen” value at A3 W243F-YFP was “rapid internalization”.
